Among the test systems are NCI-H226; HCT-116; OVCAR-3; ACHN; IGROV-1; NCI-H23; MCF7; A549; PC-3; COLO 205; TK-10; HOP-62; RPMI-8226; 786-0; HT-29; SK-MEL-2; LOX IMVI; NCI-H460; SF-539; RXF 393.
What all share (experiment): inhibition of tumour cell growth, NCI panel, 48 h

Counter-ions that a name gives are not always drawn.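 Method: 48-hour compound exposure of cells in 96-well plates, five concentrations, linear interpolation of endpoints. At the GI50, growth is halved.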 The source made the active and inactive calls. Cut-off read from the data, not from the text of the source: active = GI50 up to about 1.1 µM and inactive = higher.

The record followed here is ChEMBL document CHEMBL1201862, “PubChem BioAssay data set” (2004).

For `O/N=C/[C@H]1COC2(CCCCC2)O1`, the GI50 with NCI-H226, in the experiment on HCT-116, in the experiment with OVCAR-3, in the experiment on ACHN, in the experiment on IGROV-1 and in the experiment with NCI-H23 was > 100 µM (inactive) throughout. Besides, the GI50 in the experiment with MCF7, in the experiment with A549, in the experiment on PC-3, with COLO 205, with TK-10 and with HOP-62 was > 100 µM (inactive) in each case. In addition, the GI50 with RPMI-8226, in the experiment on 786-0, in the experiment on HT-29, in the experiment with SK-MEL-2 and in the experiment with LOX IMVI was > 100 µM (inactive) throughout.
For `CCOC(=O)c1cn(C)nc1N/C(C)=C\C(=O)c1ccccc1`, the GI50 was 91.4 µM (inactive) with NCI-H226; > 100 µM (inactive) in the experiment on NCI-H460; > 100 µM (inactive) in the experiment with OVCAR-3; > 100 µM (inactive) with ACHN; > 100 µM (inactive) in the experiment with IGROV-1; 83.2 µM (inactive) in the experiment with SF-539. The GI50 with NCI-H23, with MCF7, in the experiment with A549, in the experiment on PC-3, with COLO 205 and with TK-10 was > 100 µM (inactive) in each case. In addition, the GI50 is 33 µM (inactive) in the experiment on HOP-62, > 100 µM (inactive) in the experiment on 786-0, 60.1 µM (inactive) in the experiment with HT-29 and 90.8 µM (inactive) in the experiment with LOX IMVI.
Regarding `CCOC(=O)C1=C(C)OC(=O)[C@@]2(OC)C=C(Cl)[C@@]12C`, the GI50 with NCI-H226, with NCI-H460, with HCT-116, in the experiment with OVCAR-3, in the experiment with ACHN and in the experiment with IGROV-1 was > 100 µM (inactive) throughout. The GI50 in the experiment with SF-539, with NCI-H23, in the experiment with MCF7, in the experiment on A549, in the experiment on PC-3 and in the experiment on RXF 393 was > 100 µM (inactive) in each case. Further, the GI50 in the experiment on COLO 205, in the experiment with TK-10, in the experiment on HOP-62, in the experiment on RPMI-8226, in the experiment with 786-0 and in the experiment on HT-29 was > 100 µM (inactive) in each case. Also, in the experiment on LOX IMVI, the GI50 was > 100 µM (inactive).
As for `CC(=O)OC12c3ccccc3C(c3ccccc31)C1C(=O)N(c3ccccn3)C(=O)C12` (stereo not drawn), the GI50 in the experiment on NCI-H226 was > 100 µM (inactive); in the experiment on HCT-116, 54.7 µM (inactive); in the experiment with OVCAR-3, 28.4 µM (inactive); with IGROV-1 it was > 100 µM (inactive); in the experiment with SF-539 it was > 100 µM (inactive); with NCI-H23, > 100 µM (inactive). Moreover, the GI50 was > 100 µM (inactive) with MCF7; 62.7 µM (inactive) in the experiment with A549; 47.9 µM (inactive) with PC-3; > 100 µM (inactive) in the experiment with RXF 393; 64.6 µM (inactive) with COLO 205; > 100 µM (inactive) with TK-10. In addition, the GI50 in the experiment on HOP-62 was 65.6 µM (inactive); in the experiment on RPMI-8226 it was 27.1 µM (inactive); with 786-0 it was > 100 µM (inactive); with HT-29, 62.4 µM (inactive); with LOX IMVI, > 100 µM (inactive).
Take `CC1CC/C(=C\c2ccc(N(C)C)cc2)C(=O)/C1=C/c1ccc(N(C)C)cc1` (stereo not drawn): the GI50 in the experiment on NCI-H226, with HCT-116, in the experiment with OVCAR-3, in the experiment on ACHN, in the experiment on IGROV-1 and in the experiment with SF-539 was > 100 µM (inactive) in each case. Besides, the GI50 with NCI-H23, with MCF7, in the experiment with A549, in the experiment with PC-3, in the experiment with COLO 205 and with TK-10 was > 100 µM (inactive) throughout. Further, the GI50 with HOP-62, in the experiment with 786-0, in the experiment on HT-29, in the experiment with SK-MEL-2 and in the experiment with LOX IMVI was > 100 µM (inactive) throughout.
With `O=C1c2ccccc2C(=O)N1CCCCNOCCCN1C(=O)c2ccccc2C1=O`, the GI50 in the experiment on NCI-H226, in the experiment with NCI-H460, in the experiment on HCT-116, in the experiment with OVCAR-3, with ACHN and in the experiment on IGROV-1 was > 100 µM (inactive) each time. Moreover, the GI50 with NCI-H23, with MCF7, in the experiment with A549, with PC-3, in the experiment with RXF 393 and in the experiment on COLO 205 was > 100 µM (inactive) throughout. Moreover, the GI50 in the experiment with TK-10, in the experiment on HOP-62, in the experiment on RPMI-8226, in the experiment on 786-0, in the experiment on HT-29 and in the experiment with LOX IMVI was > 100 µM (inactive) throughout.
As for `Cc1cnc(-n2c(C)nc3cc(Cl)ccc3c2=O)s1`, the GI50 was 32 µM (inactive) in the experiment on NCI-H226; 30.2 µM (inactive) with NCI-H460; 22 µM (inactive) in the experiment on HCT-116; 45.6 µM (inactive) in the experiment on OVCAR-3; 31 µM (inactive) in the experiment on ACHN; 40 µM (inactive) with IGROV-1. Moreover, the GI50 in the experiment on SF-539 was 20.7 µM (inactive); in the experiment with NCI-H23, 23.3 µM (inactive); with MCF7 it was 17.9 µM (inactive); in the experiment on A549 it was 32.7 µM (inactive); with PC-3, 27.9 µM (inactive); in the experiment on COLO 205 it was 19 µM (inactive). The GI50 in the experiment with TK-10 is 43.1 µM (inactive); with HOP-62 it was > 100 µM (inactive); with 786-0 it was 24.5 µM (inactive); in the experiment on HT-29, 32.7 µM (inactive); with SK-MEL-2, 25.4 µM (inactive); in the experiment on LOX IMVI it was 41.6 µM (inactive).
In the case of `CC(C)CC(N)C(=O)NC(C(=O)NC(CCCNC(=N)N)C(=O)NC(CS)C(=O)NC1CSCC(C(=O)NC(Cc2ccccc2)C(=O)NC(C(=O)NC(CCCNC(=N)N)C(=O)O)C(C)C)NC(=O)C2CCCN2C(=O)C(CCCCN)NC(=O)C2CCCN2C(=O)C2CCCN2C(=O)C(Cc2ccc(O)cc2)NC(=O)C(CO)NC(=O)C(CCCCN)NC(=O)C(C(C)O)NC(=O)C(Cc2c[nH]c3ccccc23)NC1=O)C(C)C` (stereo not drawn), the GI50 in the experiment with NCI-H226, in the experiment with HCT-116, in the experiment with OVCAR-3, in the experiment on ACHN, with IGROV-1 and in the experiment on SF-539 was > 25 µM (inactive) each time. For the same molecule, the GI50 in the experiment with NCI-H23, in the experiment with MCF7, in the experiment with A549, in the experiment on PC-3, in the experiment with COLO 205 and with TK-10 was > 25 µM (inactive) throughout. Moreover, the GI50 in the experiment on HOP-62, in the experiment with RPMI-8226, in the experiment on 786-0, with HT-29, with SK-MEL-2 and with LOX IMVI was > 25 µM (inactive) each time.
Regarding `CC(C)C[C@H](NC(=O)[C@H](Cc1ccccc1)NC(=O)c1cnccn1)B(O)O` [BORTEZOMIB], the GI50 in the experiment with NCI-H460, with HCT-116, in the experiment with OVCAR-3, in the experiment on ACHN, in the experiment with IGROV-1 and in the experiment on SF-539 was < 0.01 µM (active) in each case. The GI50 with NCI-H23, in the experiment with MCF7, in the experiment with A549, in the experiment with PC-3, in the experiment on RXF 393 and in the experiment on COLO 205 was < 0.01 µM (active) each time. Besides, the GI50 in the experiment with TK-10 is < 0.01 µM (active); with HOP-62, < 0.01 µM (active); in the experiment with RPMI-8226, 0.01 µM (active); with 786-0, < 0.01 µM (active); in the experiment on HT-29 it was < 0.01 µM (active); in the experiment on SK-MEL-2 it was 0.01 µM (active). In addition, in the experiment on LOX IMVI, the GI50 is 0.01 µM (active).
Consider `C=C1C[C@@H]2CC[C@@]34C[C@H]5O[C@H]6[C@@H](O3)[C@H]3O[C@H](CC[C@@H]3O[C@H]6[C@H]5O4)CC(=O)C[C@@H]3[C@@H](OC)[C@@H](C[C@H](O)CN)O[C@H]3C[C@H]3O[C@@H](CC[C@@H]1O2)C[C@@H](C)C3=C` [ERIBULIN MESYLATE], for which the GI50 in the experiment with NCI-H226 is 0.000522 µM (active); in the experiment on NCI-H460, 0.00172 µM (active); with HCT-116 it was 0.00074 µM (active); in the experiment with OVCAR-3, 9.59e-05 µM (active); in the experiment on ACHN, 0.0556 µM (active); in the experiment on IGROV-1, 0.00151 µM (active). For the same molecule, the GI50 was 0.000465 µM (active) in the experiment with SF-539; 0.00109 µM (active) in the experiment on NCI-H23; 0.000383 µM (active) with MCF7; 0.00197 µM (active) with A549; 0.00037 µM (active) with PC-3; 0.00031 µM (active) in the experiment on COLO 205. In addition, the GI50 was 0.0815 µM (active) in the experiment on TK-10; 0.00412 µM (active) in the experiment on HOP-62; 0.000516 µM (active) with RPMI-8226; 0.00328 µM (active) in the experiment with 786-0; 0.000352 µM (active) in the experiment on HT-29; 0.00607 µM (active) with SK-MEL-2. Besides, the GI50 with LOX IMVI was 0.0014 µM (active).
